In patent publication EP0845210A1, “New herbicidal compositions” (RHONE-POULENC AGRICULTURE LTD., priority 1994, dated 1996):

How the values were obtained:
Assay type in all cases: in vivo
Amaranthus retroflexus = experiment: Procedure A: pre-emergence glasshouse pot test, growth reduction assessed two weeks after treatment; details: Table A2
Excerpt: (§1) Seed of the various species of broad-leaf or grass weeds were sown in unsterilised clay loam soil in 7 centimetre by 7 centimetre plastic plant pots. The pots were watered and allowed to drain. The soil surface was then sprayed with ranges of concentrations of either the individual herbicide or mixtures of two herbicides in various proportions, dissolved in a 50:50 by volume solution of acetone and water, using a track sprayer set to deliver the equivalent of 290 l/ha. All herbicides were used as unformulated technical materials except dimethenamid, which was used as the commercial formulation "Frontiere" (trade mark), a flowable containing 900g/l active ingredient; and alachlor, which was used as "Lasso" (trade mark), an emulsifiable concentrate formulation containing 480g/l active ingredient.
(§2) Treated pots were placed at random in four replicate blocks per treatment for each plant species. The pots were held, in a glasshouse, standing on moist capillary matting, under lights and with overhead watering twice daily.
(§3) Two weeks after treatment the percent reduction in plant growth, compared to an untreated control, was assessed.
(§4) Mean percent reduction in plant growth was calculated for each treatment. Dose/mean response was plotted on Log concentration/Probability graph paper, and lines fitted by eye. For herbicide mixtures a dose/response line for the first herbicide was drawn for each dose rate of the second herbicide and a dose/response line for the second herbicide was drawn for each dose rate of the first herbicide. The doses representing a 90% reduction in plant growth (LD90's) were read from these lines and plotted on graphs whose axes were dose rates of the two herbicides. The line joining these points is an Isobole i.e. a line joining points (mixtures) of equal activity, as described by P.M.L. Tammes, Neth. J. Plant Path. 70 (1964) : 73-80. A line was also drawn joining the LD90's of the individual components of the mixture. This line represents the theoretical isobole if the effect of the two components is additive i.e. there is no interaction between them. Isoboles falling below this line indicate synergy between the components while lines lying above it indicate antagonism.
(§5) In the tables that follow 'dose' represents the dose rate in grammes per hectare of the active ingredient used; and the figures for the weed control are percentages reduction in growth when compared with the untreated controls.

Digitaria sanguinalis = experiment: as above
Excerpt: as §1, §2, §3, §4, §5

Echinochloa crus-galli = experiment: as above
Excerpt: as §1, §2, §3, §4, §5

Setaria viridis = experiment: as above; details: Table A1
Excerpt: as §1, §2, §3, §4, §5

maize = experiment: Procedure C: field trial of crop phytotoxicity, visual assessment 40 days after sowing
Experimental: The experiments were carried out pre-emergence of the weed species at various research farm locations throughout the Mid-West corn belt in United States of America with Compounds A and D (each formulated as wettable powders) and metolachlor (formulated as a 96% emulsifiable concentrate), alachlor (formulated as a 48% emulsifiable concentrate) and dimethenamid (formulated as a 90% emulsifiable concentrate).
Various mixtures of the above 4-benzoylisoxazoles and chloroacetamides were weighed out and dissolved in water to give a solution containing the appropriate concentrations and ratios of active ingredients.
The solution was mixed for one hour and applied at a spray volume of 231 litres/hectare to a 3 metre by 5 metre test plot comprising the maize seed which were sown 2 days earlier. 3 replicates were performed. The experiments were performed using seven varities of maize (except for the mixtures comprising alachlor at 1120 g per hectare, where four varieties were used). A control plot was sprayed with a solution not containing test compound. Visual assessment of phytotoxicity was made 40 days after sowing the maize seeds based on a comparison with the control plot. Table F1

maize (Zea mays) = experiment: Procedure D: pre-emergence field trial (Volga, Brookings), crop phytotoxicity about 26 days after treatment; details: A 37.5 g/ha alone
Experimental: The following experiments were carried out pre-emergence of the weed species. Compound A, formulated as a wettable dispersible granule as described in Example 1 herebelow (750g per kilogram) and each acetochlor (used as the commercially available formulation "Harness" (trade mark), an emulsifiable concentrate containing 960g of acetochlor per kilogram, and which also contains the safening agent flurazole, metolachlor (used as the commercially available formulation "Duelor" (trade mark), an emulsifiable concentrate emulsifiable concentrate containing 960g of metolachlor per kilogram), alachlor (used as the commercially available formulation "Lasso" (trade mark), an emulsifiable concentrate containing 480g of alachlor per kilogram) and dimethenamid (used as the commercially available formulation "Frontiere" (trade mark), a flowable containing 900g/l active ingerident) were dissolved in water and sprayed at a volume rate of 187 litres/hectare on various test plots (10 square meters in area) either alone or in mixtures. The soil was a clay-loam, with a pH of 7, the experiments being conducted in June in Volga, Brookings, U.S.A. The various weed and crop species were drill sown and the various compositions were applied on the same day after drilling. Three replicates were performed and the efficacy of the various mixtures were determined by visual assessment of the percentage phytotoxicity in comparison with an untreated control. Assessment was made about 26 days after treatment. In the Tables which follow the dose is expressed in grammes per hectare and the figures in brackets represent the expected results according to the Colby formula.

For CS(=O)(=O)c1cc(C(F)(F)F)ccc1C(=O)c1cnoc1C1CC1 [Compound A, 5-cyclopropyl-4-(2-methylsulphonyl-4-trifluoromethyl)benzoylisoxazole], the “percent reduction in plant growth” value (Amaranthus retroflexus; A 1 g/ha alone) was 12.5%, the “percent reduction in plant growth” value (Amaranthus retroflexus; A 2 g/ha alone) was 51.25% and the “percent reduction in plant growth” value (Amaranthus retroflexus; A 4 g/ha alone) was 12.5%. The “percent reduction in plant growth” value (Amaranthus retroflexus; A 8 g/ha alone) was 87.5%, the “percent reduction in plant growth” value (Amaranthus retroflexus; A 16 g/ha alone) was 92.5% and the “percent reduction in plant growth” value (Amaranthus retroflexus; A 32 g/ha alone) was 99.75%. For the same compound, the “percent reduction in plant growth” value (Amaranthus retroflexus; A 64 g/ha alone) was 99.75%, the “percent reduction in plant growth” value (Digitaria sanguinalis; A 1 g/ha alone, Table B1) was 18.75% and the “percent reduction in plant growth” value (Digitaria sanguinalis; A 1 g/ha alone, Table D1) was 0%. The “percent reduction in plant growth” value (Digitaria sanguinalis; A 2 g/ha alone, Table B1) was 20%, the “percent reduction in plant growth” value (Digitaria sanguinalis; A 2 g/ha alone, Table C1) was 20% and the “percent reduction in plant growth” value (Digitaria sanguinalis; A 2 g/ha alone, Table D1) was 12.5%. The “percent reduction in plant growth” value (Digitaria sanguinalis; A 4 g/ha alone, Table B1) was 33.75%, the “percent reduction in plant growth” value (Digitaria sanguinalis; A 4 g/ha alone, Table C1) was 40% and the “percent reduction in plant growth” value (Digitaria sanguinalis; A 4 g/ha alone, Table D1) was 17.5%. For the same compound, the “percent reduction in plant growth” value (Digitaria sanguinalis; A 8 g/ha alone, Table B1) was 67.5%, the “percent reduction in plant growth” value (Digitaria sanguinalis; A 8 g/ha alone, Table C1) was 7.5% and the “percent reduction in plant growth” value (Digitaria sanguinalis; A 8 g/ha alone, Table D1) was 61.25%. For the same compound, the “percent reduction in plant growth” value (Digitaria sanguinalis; A 16 g/ha alone, Table B1) was 50%, the “percent reduction in plant growth” value (Digitaria sanguinalis; A 16 g/ha alone, Table C1) was 50% and the “percent reduction in plant growth” value (Digitaria sanguinalis; A 16 g/ha alone, Table D1) was 67.5%. The “percent reduction in plant growth” value (Digitaria sanguinalis; A 32 g/ha alone, Table B1) was 73.5%, the “percent reduction in plant growth” value (Digitaria sanguinalis; A 32 g/ha alone, Table C1) was 74.75% and the “percent reduction in plant growth” value (Digitaria sanguinalis; A 32 g/ha alone, Table D1) was 66%. The “percent reduction in plant growth” value (Digitaria sanguinalis; A 64 g/ha alone, Table B1) was 87.5%, the “percent reduction in plant growth” value (Digitaria sanguinalis; A 64 g/ha alone, Table C1) was 80% and the “percent reduction in plant growth” value (Digitaria sanguinalis; A 64 g/ha alone, Table D1) was 95%. For the same compound, the “percent reduction in plant growth” value (Digitaria sanguinalis; A 128 g/ha alone, Table C1) was 93.5%, the “percent reduction in plant growth” value (Digitaria sanguinalis; A 128 g/ha alone, Table D1) was 76.25% and the “percent reduction in plant growth” value (Digitaria sanguinalis; A 256 g/ha alone, Table D1) was 98.75%. For the same compound, the “percent reduction in plant growth” value (Echinochloa crus-galli; A 1 g/ha alone, Table B2) was 12.5%, the “percent reduction in plant growth” value (Echinochloa crus-galli; A 1 g/ha alone, Table D2) was 11.25% and the “percent reduction in plant growth” value (Echinochloa crus-galli; A 2 g/ha alone, Table B2) was 6.25%. The “percent reduction in plant growth” value (Echinochloa crus-galli; A 2 g/ha alone, Table C2) was 3.75%, the “percent reduction in plant growth” value (Echinochloa crus-galli; A 2 g/ha alone, Table D2) was 7.5% and the “percent reduction in plant growth” value (Echinochloa crus-galli; A 4 g/ha alone, Table B2) was 1.25%. For the same compound, the “percent reduction in plant growth” value (Echinochloa crus-galli; A 4 g/ha alone, Table C2) was 2.5%, the “percent reduction in plant growth” value (Echinochloa crus-galli; A 4 g/ha alone, Table D2) was 15% and the “percent reduction in plant growth” value (Echinochloa crus-galli; A 8 g/ha alone, Table B2) was 61.25%. For the same compound, the “percent reduction in plant growth” value (Echinochloa crus-galli; A 8 g/ha alone, Table C2) was 32.5%, the “percent reduction in plant growth” value (Echinochloa crus-galli; A 8 g/ha alone, Table D2) was 15% and the “percent reduction in plant growth” value (Echinochloa crus-galli; A 16 g/ha alone, Table B2) was 71.25%. The “percent reduction in plant growth” value (Echinochloa crus-galli; A 16 g/ha alone, Table C2) was 60%, the “percent reduction in plant growth” value (Echinochloa crus-galli; A 16 g/ha alone, Table D2) was 62.5% and the “percent reduction in plant growth” value (Echinochloa crus-galli; A 32 g/ha alone, Table B2) was 75%. The “percent reduction in plant growth” value (Echinochloa crus-galli; A 32 g/ha alone, Table C2) was 90%, the “percent reduction in plant growth” value (Echinochloa crus-galli; A 32 g/ha alone, Table D2) was 86% and the “percent reduction in plant growth” value (Echinochloa crus-galli; A 64 g/ha alone, Table B2) was 93.5%. For the same compound, the “percent reduction in plant growth” value (Echinochloa crus-galli; A 64 g/ha alone, Table C2) was 97%, the “percent reduction in plant growth” value (Echinochloa crus-galli; A 64 g/ha alone, Table D2) was 87.5% and the “percent reduction in plant growth” value (Echinochloa crus-galli; A 128 g/ha alone, Table B2) was 93.75%. For the same compound, the “percent reduction in plant growth” value (Echinochloa crus-galli; A 128 g/ha alone, Table C2) was 99.75%, the “percent reduction in plant growth” value (Echinochloa crus-galli; A 128 g/ha alone, Table D2) was 99.5% and the “percent reduction in plant growth” value (Echinochloa crus-galli; A 256 g/ha alone, Table D2) was 92.5%. For the same compound, the “percent reduction in plant growth” value (Setaria viridis; A 0.5 g/ha alone) was 15%, the “percent reduction in plant growth” value (Setaria viridis; A 1 g/ha alone) was 5% and the “percent reduction in plant growth” value (Setaria viridis; A 2 g/ha alone) was 47.5%. The “percent reduction in plant growth” value (Setaria viridis; A 4 g/ha alone) was 33.75%, the “percent reduction in plant growth” value (Setaria viridis; A 8 g/ha alone) was 38.75% and the “percent reduction in plant growth” value (Setaria viridis; A 16 g/ha alone) was 53.75%. For the same compound, the “percent reduction in plant growth” value (Setaria viridis; A 32 g/ha alone) was 70%, the “percent reduction in plant growth” value (Setaria viridis; A 64 g/ha alone) was 76% and the “percent reduction in plant growth” value (Setaria viridis; A 128 g/ha alone) was 88.75%. The “Visual assessment of phytotoxicity” value (maize; A 78 g/ha alone) was 0, the “Visual assessment of phytotoxicity” value (maize; A 105 g/ha alone) was 0 and the percentage phytotoxicity (maize (Zea mays)) was 0%.
